Measured values from patent publication US9387213B2, “Small molecules inhibiting oncoprotein Myc” (Health Research, Inc., priority 2012, dated 2016).

Legend:
HO-null cells = assay: Secondary filter for Myc specificity: cell growth inhibition, methylene blue staining; type: cell-based; conditions: Rattus norvegicus, 72 h, read-out: ID50 HO-null
Protocol: (§1) FIG. 4 illustrates the myc specificity of tested compounds. Rat1a cells expressing c-myc, L-myc or N-myc or lacking any Myc (null) were treated for 72 h with a range of hit compound concentrations. The cells were then fixed and stained with methylene blue and the percentage of cells in the presence of compound compared to DMSO only control was calculated.
(§2) Validated hits were divided into classes when two or more compounds shared significant structural similarity. The ID50 for N-myc transactivation (the inhibitory dose resulting in 50% decrease in luciferase activity) for each hit was calculated from the dose-response N-myc responsive reporter assay. Compounds within each class were ranked by their ID50 for N-myc transactivation and the best compounds within each class were chosen for further studies. In addition, the best of the structurally unique compounds were also analyzed. A total of 46 hits were passed through a secondary filter designed to determine the specificity of the hits for Myc proteins. For this filter, we used a panel of cell lines derived from Rat1a cells (kindly provided by Michael Cole, Dartmouth University): HO-null-c-Myc deficient cells due to homologous recombination that express neither N-myc nor L-myc HO-c-Myc, HO-L-myc and HO-N-myc derived by retroviral transduction of the corresponding Myc genes into HO-null cells. Since each cell line expresses only a single Myc or no Myc family members, we could identify compounds that act through Myc family members as well as which Myc family members. […] The 18 Myc-specific compounds identified during the screening and filtering process are presented in Table 1 and represent distinct classes of molecules, including pyrazoles (e.g., N147A7, N47E10, N147G5), tetrazoles (e.g., N77A7) and 3-bromophenol (e.g., N4G6).

HO-N-myc cells = assay: as above; type: cell-based, rat
Protocol: as §1, §2

HO-c-Myc cells = assay: as above; type: cell-based, rat
Protocol: as §1, §2

[1] = tested on: C-MYC-activated global gene expression in SK-Mel-103 melanoma cells; assay: Global gene expression analysis, Affymetrix U133 Plus 2.0; type: cell-based, human; conditions: 4 μM, 48 hours
Protocol: FIG. 13 illustrates a comparison of changes in global gene expression caused by depletion of C-MYC via shRNA or by treatment with N77A7.
SK-Mel-103 melanoma cells were infected with control- or MYC shRNA-expressing lentiviruses or treated with DMSO or 4 μM of N77A7. In 48 hours after lentiviral infection or incubation with the chemicals, cells were collected, RNA was isolated and subjected to global expression analysis using Affymetrix GeneChip® Human Genome U133 Plus 2.0 Platform. A linear model specifically designed for microarray analysis was applied to the data. Differentially expressed probe sets were detected using a nested F-test approach. An adjusted p-value of 0.005 was used to assess significance, adjusting for multiple comparisons using false discovery rate. The obtained results are schematically represented in FIG. 13. It was determined that incubation with N77A7 negatively affected expression of 820 genes by ≧2 fold (591+229, FIG. 13). […] Therefore it is logical to expect that the number of genes whose expression is suppressed both by MYC-shRNA and N77A7 should be higher than the number of genes whose expression is induced by both treatments.

[2] = tested on: Myc+ fibroblasts (HO15.19 Myc-null cells with C-MYC re-expression); assay: Stable-isotope tracing, 13C labeling and uptake/secretion of metabolites; type: cell-based, rat; conditions: 13C-glucose, 24 hrs, Myc+ cells treated
Protocol: Experiments were perform and data were analyzed as described in FIG. 14. Cellular measurements are mean±SD of 3 samples.

CCN(CC)c1ccc(/C=N/NC(=O)Cn2nnc(-c3ccccc3)n2)c(O)c1 [Compound N77A7]
IC50 (HO-null cells): 3.64 µM | Myc Index N (HO-N-myc cells; ID50 in HO-null cells divided by ID50 in HO—N-myc cells): 4.5 | IC50 (HO-N-myc cells; Rattus norvegicus, cell growth inhibition, 72 h, methylene blue, read-out: ID50 HO—N-myc): 0.77 µM | Myc Index C (HO-c-Myc cells; ID50 in HO-null cells divided by ID50 in HO-c-myc cells): 0.8 | IC50 (HO-c-Myc cells; Rattus norvegicus, cell growth inhibition, 72 h, methylene blue, read-out: ID50 HO-c-myc): 4.7 µM | number of genes whose expression was negatively affected by ≧2 fold [1]: 820 genes | number of these genes also suppressed ≧2 fold by MYC shRNA [1]: 591 genes | share of genes induced ≧2 fold also upregulated ≧2 fold by MYC shRNA [1]: 47.1% | share of suppressed genes also suppressed ≧2 fold by MYC shRNA [1]: 72.1% | metabolic phenotype [2]: metabolic phenotype similar to Myc-null cells
